Assays:
[1] = target: T1, human GPCR sphingosine 1-phosphate receptor 2 (S1PR2) (Homo sapiens, UniProt O95136); experiment: S1P2 antagonist assay (Ca2+ flux, S1P at EC80); assay type: cell-based; conditions: CHO-S1PR2 cells, highest concentration 20 μM
T1 construct: host or cells: CHO
Procedure, shortened: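 CHO cells stably overexpressing human S1PR2, serum-starved 1 h and loaded with Fluo8 dye, were read for 3 min after compound addition, then stimulated with S1P at EC80 after 15 min at 37 °C. Top concentration 20 μM in a 10-point 1/3 series; Ca2+ fluorescence ratio normalized to vehicle and S1P EC80, giving EC50.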

[2] = target: T2, human GPCR sphingosine 1-phosphate receptor 1 (S1PR1) (Homo sapiens, UniProt P21453); experiment: S1PR1 selectivity assay (Ca2+ flux, antagonist); assay type: cell-based; conditions: S1P1 antagonist EC50, CHO cells overexpressing human S1PR1 and Gq protein
T2 construct: host or cells: CHO
Procedure, shortened: (§1)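 CHO cells stably overexpressing human S1PR1 or S1PR5 with Gq were preincubated with compound 15 min at 37 °C, then stimulated with S1P at EC80 (S1PR1) or an S1PR5-specific agonist (S1PR5). Ca2+ fluorescence was read for 3 min; 10-point 1/3 dilutions from 20 μM final, normalized to vehicle and EC80 trigger, gave EC50.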

[3] = target: T3, human GPCR sphingosine 1-phosphate receptor 5 (S1PR5) (Homo sapiens, UniProt Q9H228); experiment: S1PR5 selectivity assay (Ca2+ flux, antagonist, S1PR5 specific agonist trigger); assay type: cell-based; conditions: S1P5 antagonist EC50, CHO cells overexpressing human S1PR5 and Gq protein
T3 construct: host or cells: CHO
Procedure, shortened: as §1

[4] = target: T4, S1PR2 (Homo sapiens, UniProt O95136); experiment: GTP-γS binding assay ([35S]GTPγS, S1P at EC80, S1PR2 membranes); assay type: biochemical; conditions: membranes from stable cell line over expressing S1PR2, read-out: S1PR2 EC
T4 construct: expressed in transfected cells
Procedure, shortened: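 Compounds tested against S1P at its EC80 on membranes (2.5 μg/well) from a stable S1PR2-overexpressing line, pre-incubated with 1 μM GDP 15 min at 4 °C. Buffer: 20 mM Tris pH 7.5, 10 mM MgCl2, 100 mM NaCl, 0.1% fatty-acid-free BSA, 50 ug/ml saponin. Incubated 4 h at room temperature; [35S]GTPγS binding read by WGA SPA beads.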

[5] = test system: HFL-1 cells; experiment: IL8 assay (S1P induced IL-8 production); assay type: cell-based; conditions: Homo sapiens, HFL1; S1P (1 μM) induced IL-8, HFL-1 cells, without HSA
Procedure, shortened: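 Serum-starved human fetal lung fibroblasts were preincubated with compound for 1 h at 37° C (10-point, 1/3 dilution, top 30 μM, 0.3% DMSO). S1P at 1 μM final was then added for 16–24 h, and IL-8 in the supernatant was measured by ELISA.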

[6] = test system: HFL-1 cells; experiment: IL8 assay in the presence of Human Serum Albumin; assay type: cell-based; conditions: HFL1, S1P (5 μM) induced IL-8, HFL-1 cells, with 2% HSA, read-out: HSA IL8 EC50
Procedure, shortened: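 Cells serum-starved with 1.95% HSA, pre-treated 1 h with compound (10-point 1/3 dilution from 30 μM, 0.3% DMSO), then stimulated with 5 μM S1P for 16 to 24 h at 37° C. Supernatant IL-8 measured by ELISA.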

T1 sequence (O95136 whole entry): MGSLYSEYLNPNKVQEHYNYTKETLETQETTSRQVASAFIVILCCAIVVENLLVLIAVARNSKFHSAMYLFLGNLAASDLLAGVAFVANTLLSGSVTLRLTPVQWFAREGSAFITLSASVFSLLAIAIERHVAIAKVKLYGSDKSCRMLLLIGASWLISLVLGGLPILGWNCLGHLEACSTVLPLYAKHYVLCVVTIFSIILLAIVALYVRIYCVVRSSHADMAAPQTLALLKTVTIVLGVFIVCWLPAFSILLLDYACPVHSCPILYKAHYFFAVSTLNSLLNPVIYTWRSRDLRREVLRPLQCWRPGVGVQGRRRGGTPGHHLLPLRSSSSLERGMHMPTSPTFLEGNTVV
T4 sequence (O95136 whole entry): as above
T3 sequence (Q9H228 whole entry): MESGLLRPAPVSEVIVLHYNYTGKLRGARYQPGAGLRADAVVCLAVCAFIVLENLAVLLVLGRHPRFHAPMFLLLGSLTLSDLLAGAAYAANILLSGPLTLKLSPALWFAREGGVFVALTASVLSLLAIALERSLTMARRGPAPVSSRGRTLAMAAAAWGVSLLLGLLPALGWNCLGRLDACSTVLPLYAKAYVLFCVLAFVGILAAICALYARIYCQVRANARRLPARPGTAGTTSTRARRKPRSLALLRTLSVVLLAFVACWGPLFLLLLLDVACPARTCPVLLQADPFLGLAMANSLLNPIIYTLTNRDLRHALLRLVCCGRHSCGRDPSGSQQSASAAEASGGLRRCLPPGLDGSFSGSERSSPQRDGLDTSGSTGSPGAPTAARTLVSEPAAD
T2 sequence (P21453 whole entry): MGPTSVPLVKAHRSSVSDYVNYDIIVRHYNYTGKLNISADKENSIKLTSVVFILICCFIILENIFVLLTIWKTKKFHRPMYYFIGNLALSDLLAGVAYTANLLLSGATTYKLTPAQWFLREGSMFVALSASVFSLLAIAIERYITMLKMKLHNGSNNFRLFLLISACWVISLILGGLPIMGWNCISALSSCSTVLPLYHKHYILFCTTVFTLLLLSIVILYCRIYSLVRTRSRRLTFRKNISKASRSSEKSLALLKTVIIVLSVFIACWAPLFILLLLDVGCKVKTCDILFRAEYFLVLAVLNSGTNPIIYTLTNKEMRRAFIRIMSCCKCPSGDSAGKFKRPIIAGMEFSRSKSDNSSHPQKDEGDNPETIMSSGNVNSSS

Row | SMILES | EC50 [1] | EC50 [2] | EC50 [3] | EC50 [4] | EC50 [5] | IC50 [6]
1 | CN(C)c1cc(CNC(=O)Nc2cc(Cl)nc(OCC(F)F)c2)nnc1-c1cn(C)nc1C(F)(F)F [Compound 63, 1-[2-chloro-6-(2,2-difluoroethoxy)-4-pyridyl]-3-[[5-(dimethylamino)-6-[1-methyl-3-(trifluoromethyl)pyrazol-4-yl]pyridazin-3-yl]methyl]urea] | 66.8 nM | 2080 nM | 11000 nM | 298 nM | 55.4 nM | 829 nM
2 | COc1cc(CNC(=O)Nc2cc(Cl)nc(OCC(F)F)c2)nnc1-c1cn(C)nc1C(F)(F)F [Compound 64, 1-[2-chloro-6-(2,2-difluoroethoxy)-4-pyridyl]-3-[[5-methoxy-6-[1-methyl-3-(trifluoromethyl)pyrazol-4-yl]pyridazin-3-yl]methyl]urea] | 8.5 nM | 1620 nM | 4380 nM | 48.7 nM | 16.6 nM | 119 nM
3 | CN(C)Cc1cc(CNC(=O)Nc2cc(Cl)nc(OCC(F)F)c2)nnc1-c1cn(C)nc1C(F)(F)F [Compound 65, 1-[2-chloro-6-(2,2-difluoroethoxy)-4-pyridyl]-3-[[5-(dimethylamino-methyl)-6-[1-methyl-3-(trifluoromethyl)pyrazol-4-yl]pyridazin-3-yl]methyl]urea] | 1620 nM | 6610 nM | ≥ 19800 nM | 1470 nM | 2630 nM | 10000 nM
4 | CCOc1cc(NC(=O)NCc2cc(C)c(-c3cnn(C)c3C)nn2)cc(C(F)(F)F)n1 [Compound 69] | 945 nM | ≥ 19800 nM | ≥ 19800 nM | 751 nM | 108 nM | 9950 nM
5 | CCOc1nc(C)cc(NC(=O)NCc2cc(C)c(-c3cn(C)nc3C(F)(F)F)nn2)c1Cl [Compound 71, 1-(3-chloro-2-ethoxy-6-methyl-4-pyridyl)-3-[[5-methyl-6-[1-methyl-3-(trifluoromethyl)pyrazol-4-yl]pyridazin-3-yl]methyl]urea] | 9 nM | 6610 nM | 6610 nM | 25 nM | 2 nM | 56 nM
6 | CCOc1nc(C)cc(NC(=O)NCc2cc(C)c(-c3cn(C)nc3C(F)(F)F)nn2)c1C [Compound 72, 1-(2-ethoxy-3,6-dimethyl-4-pyridyl)-3-[[5-methyl-6-[1-methyl-3-(trifluoromethyl)pyrazol-4-yl]pyridazin-3-yl]methyl]urea] | 9 nM | 16500 nM | 11000 nM | 25 nM | 2 nM | 47 nM
7 | Cc1cc(NC(=O)NCc2cc(C)c(-c3cn(C)nc3C(F)(F)F)nn2)c(C)c(OCC(F)F)n1 [Compound 74, 1-[2-(2,2-difluoroethoxy)-3,6-dimethyl-4-pyridyl]-3-[[5-methyl-6-[1-methyl-3-(trifluoromethyl)pyrazol-4-yl]pyridazin-3-yl]methyl]urea] | 22 nM | 13000 nM | ≥ 19800 nM | 81 nM | 15 nM | 118 nM
8 | Cc1cc(NC(=O)NCc2cc(C)c(-c3cn(C)nc3C(F)(F)F)nn2)cc(OCC(F)F)n1 [Compound 75, 1-[2-(2,2-difluoroethoxy)-6-methyl-4-pyridyl]-3-[[5-methyl-6-[1-methyl-3-(trifluoromethyl)pyrazol-4-yl]pyridazin-3-yl]methyl]urea] | 59 nM | ≥ 19800 nM | 2890 nM | 282 nM | 38 nM | 223 nM
9 | CCOc1cc(N/C(=N/C#N)NCc2cc(C)c(-c3cn(C)nc3C(F)(F)F)nn2)cc(C(F)(F)F)n1 [Compound 76, 2-cyano-1-[2-ethoxy-6-(trifluoromethyl)-4-pyridyl]-3-[[5-methyl-6-[1-methyl-3-(trifluoromethyl)pyrazol-4-yl]pyridazin-3-yl]methyl]guanidine] | 17 nM | 13200 nM | 6610 nM | 62 nM | 8 nM | 111 nM
10 | CCOc1nc(C)cc(N/C(=N/C#N)NCc2cc(C)c(-c3cn(C)nc3C(F)(F)F)nn2)c1C [Compound 78, 2-cyano-1-(2-ethoxy-3,6-dimethyl-4-pyridyl)-3-[[5-methyl-6-[1-methyl-3-(trifluoromethyl)pyrazol-4-yl]pyridazin-3-yl]methyl]guanidine] | 106 nM | ≥ 19800 nM | ≥ 19800 nM | 863 nM | 1090 nM | 1250 nM
11 | Cc1cc(NC(=NC#N)NCc2cc(C)c(-c3cn(C)nc3C(F)(F)F)nn2)c(C)c(OCC(F)F)n1 [Compound 79, 2-cyano-1-[2-(2,2-difluoroethoxy)-3,6-dimethyl-4-pyridyl]-3-[[5-methyl-6-[1-methyl-3-(trifluoromethyl)pyrazol-4-yl]pyridazin-3-yl]methyl]guanidine] | 546 nM | ≥ 19800 nM | ≥ 19800 nM | 2130 nM | 439 nM | 7040 nM
12 | CCOc1nc(C(F)(F)F)cc(N/C(=N/C#N)NCc2cc(C)c(-c3cn(C)nc3C(F)(F)F)nn2)c1C [Compound 80, 2-cyano-1-[2-ethoxy-3-methyl-6-(trifluoromethyl)-4-pyridyl]-3-[[5-methyl-6-[1-methyl-3-(trifluoromethyl)pyrazol-4-yl]pyridazin-3-yl]methyl]guanidine] | 13 nM | ≥ 19800 nM | 6610 nM | 45 nM | 3 nM | 239 nM
13 | CCOc1cc(NC(=O)NCc2cc(C)c(N3CCC(F)(F)C3)nn2)cc(Cl)n1 [Compound 81, 1-(2-Chloro-6-ethoxy-pyridin-4-yl)-3-[6-(3,3-difluoro-pyrrolidin-1-yl)-5-methyl-pyridazin-3-ylmethyl]-urea] | 6 nM | 6610 nM | 3770 nM | 197 nM | 32 nM | 10000 nM
14 | CCOc1cc(NC(=O)NCc2cc(C)c(N3CC(C)OC(C)C3)nn2)cc(Cl)n1 (stereo not drawn) [Compound 82, 1-(2-Chloro-6-ethoxy-pyridin-4-yl)-3-[6-(2,6-dimethyl-morpholin-4-yl)-5-methyl-pyridazin-3-ylmethyl]-urea] | 6 nM | 6610 nM | 341 nM | 156 nM | 53.5 nM | 730 nM
15 | CCOc1cc(NC(=O)NCc2cc(C)c(N3CC(C)OC(C)C3)nn2)cc(C(F)(F)F)n1 (stereo not drawn) [Compound 87, 1-[[6-(2,6-dimethyl-morpholin-4-yl)-5-methyl-pyridazin-3-yl]methyl]-3-[2-ethoxy-6-(trifluoromethyl)-4-pyridyl]urea] | 42 nM | 1400 nM | 249 nM | 331 nM | 82 nM | 2170 nM
16 | Cc1cc(CNC(=O)Nc2cc(Cl)nc(OCC(F)F)c2)nnc1N1CCOC(C(F)(F)F)C1 (stereo not drawn) [Compound 89, 1-[2-chloro-6-(2,2-difluoroethoxy)-4-pyridyl]-3-[[5-methyl-6-[2-(trifluoromethyl)morpholin-4-yl]pyridazin-3-yl]methyl]urea] | 34 nM | 3800 nM | 839 nM | 422 nM | 33 nM | 1580 nM

From patent US20190388421A1, “NOVEL COMPOUNDS AND PHARMACEUTICAL COMPOSITIONS THEREOF FOR THE TREATMENT OF FIBROSIS” (Galapagos NV, priority 2016, published 2019)
